Laboratory results from patent publication US12239640B2, “Use of miloxacin in preparation of medicines for treating and/or preventing diseases with T-type calcium channels as therapeutic target” (SOOCHOW UNIVERSITY, priority 2020, dated 2025).

What was measured:
[1] = system: CFA-induced inflammatory pain model rats; experiment: Facial pain threshold of CFA-induced inflammatory pain model rats (von Frey); format: in vivo, rat; settings: day 2 after CFA; for effect on facial pain threshold (mechanical hyperalgesia), CFA model: at 3 h
Procedure: Adult healthy male SD rats weighed 200-250 g were used. Before the experiment, the animals were allowed to acclimate to the breeding environment for three days. The model was established by a routine laboratory method. CFA was injected subcutaneously into the rat's facial whisker pad at a dose of 20 μl/mouse. Individuals with hyperalgesia and swelling of […] on day 2 after CFA injection were used as the experimental subjects, that is, the rats in the experiment group. Before the behavioral test, the rats were housed in a plexiglass box on a wire mesh frame to acclimate to the environment for three consecutive days, for 1 h each time. Test method: The middle part of the whisker pad was stimulated with von Frey filament at 1 g. If there were 3 escapes in 5 consecutive stimulations, the response was positive. Then, the same operation was repeated with von Frey filament at a lower level of intensity. If there was no positive response, the middle part of the whisker pad was stimulated with von Frey filament at a higher level of intensity. The minimum intensity at which a positive response occurs is taken as the facial pain threshold, that is, the facial mechanical pain threshold. It can be seen that CFA induction can lower the facial pain threshold of rats. • 3. Effect of miloxacin on the facial pain threshold of CFA-induced inflammatory pain model rats: 27 rats with CFA-induced inflammation obtained by the above method were divided into three groups, each having 9 rats. On day 2 after CFA induction, 10 nmol miloxacin was locally injected into the trigeminal ganglion of rats in the first group, 5 nmol miloxacin was locally injected into the trigeminal ganglion of rats in the second group, and the corresponding solvent DMSO was locally injected into the trigeminal ganglion of rats in the third group. After 1 h, 3 h, 6 h, 12 h, 18 h, and 24 h, the facial pain threshold of each group was detected. […] Study on the analgesic mechanism of miloxacin in CFA-induced inflammatory pain model rats: On day 2 after CFA induction, 2 nmol TTA-P2 was locally injected into the trigeminal ganglion, and then 10 nmol miloxacin was locally injected into the trigeminal ganglion after 30 min, which was used as the TTA-P2 group. The other group was injected with the corresponding solvent DMSO, and then administered with 10 nmol miloxacin by local injection 30 min later, which was used as the solvent group. TTA-P2 is a T-type calcium channel blocker, and the solvent for TTA-P2 is DMSO.

[2] = biological target: T1, T-type calcium channel subtype Cav3.2 (Homo sapiens, UniProt O95180); experiment: Whole-cell voltage clamp of Cav3.2 current in transfected HEK293 cells; format: cell-based
T1 construct: expressed in transfected cells; host or cells: HEK293 cells
Procedure: (§1) 1. Preparation before transfection: A flask of HEK293 cell culture was removed of the culture medium, and gently washed twice by adding 3 ml of a phosphate buffer. Then, the cells were digested by adding 1 ml of 0.25% trypsin, and pipetted by adding DMEM medium after 3-5 min to collect the cells. The cells were centrifuged at 1000 rpm for 5 min, and the supernatant was discarded. 5-10 ml of DMEM medium was added to suspend the cells. The cells were slowly pipetted again, then subcultured in a 35 mm petri dish covered with glass slides, and transfected after 24 h.
(§2) 2. Transfection: The cells were transfected by liposome transfection, where the transfection reagent was Lipofectamine 3000, and the materials used: Cav3 plasmid 1.5 μg, transfection enhancement factor (TAG) 0.25 μg, and enhanced green fluorescent protein (EGFP) 0.1 μg. 48-72 h after transfection, the whole-cell patch clamp technique was used to record fluorescent HEK293 cells, with 9-12 cells per group.
(§3) The base sequences of Cav3.1, Cav3.2 and Cav3.3 plasmids were verified by gene sequencing and confirmed by DNA Star sequence analysis and alignment software that they are respectively consistent with the sequence Nos. NM_198376.3 (Cav3.1), NM_021098.3 (Cav3.2) and NM_021096.4 (Cav3.3) published in the NCBI database.
(§4) At room temperature, Multiclamp700B amplifier was used for whole-cell voltage clamp recording. The glass electrode was a drawn electrode, and the resistance of the electrode filled with intracellular fluid was 3-5 MΩ. DigiData1322A was converted into a digital signal in pClamp10.2 software. The series resistance compensation was 70-80%. The stimulating square wave was depolarized to −30 mV with a clamping voltage of −90 mV, and then returned to the clamping potential level. The current amplitude of the T-type calcium channel at this time was recorded.
(§5) Internal pipette solution: 110 cesium chloride, 4 magnesium-ATP, 0.3 sodium-GTP, 25 HEPES, 10 EGTA. External pipette solution: 5 barium chloride, 140 tetraethylamine chloride, 5 cesium chloride, 0.5 magnesium chloride, 5.5 glucose, 10 HEPES. […]

normal rats = experiment: Facial pain threshold of normal rats (von Frey); format: in vivo, rat; settings: 10 nmol injected into trigeminal ganglion, vs. solvent group
Procedure: Before the behavioral test, the rats were housed in a plexiglass box on a wire mesh frame to acclimate to the environment for three consecutive days, for 1 h each time. Test method: The middle part of the whisker pad was stimulated with von Frey filament at 1 g. If there were 3 escapes in 5 consecutive stimulations, the response was positive. Then, the same operation was repeated with von Frey filament at a lower level of intensity. If there was no positive response, the middle part of the whisker pad was stimulated with von Frey filament at a higher level of intensity. The minimum intensity at which a positive response occurs is taken as the facial pain threshold, that is, the facial mechanical pain threshold. • 1. Effect of miloxacin on the facial pain threshold of normal rats (without CFA induction): 20 normal rats were divided into two groups, each having 10 rats. The first group was a solvent group, and the second group was a treatment group. 10 nmol miloxacin was injected into the trigeminal ganglion of the second group of rats, and the corresponding solvent DMSO was injected into the trigeminal ganglion of the first group of rats.

T-type calcium channel = T-type calcium channel current in acutely dissociated primary rat trigeminal ganglion neurons; format: cell-based
From the text: Specifically, trigeminal ganglion neurons from adult male SD rats were acutely dissociated under the conditions of enzymatic hydrolysis of trigeminal ganglion neurons (Zhang Y et al., J Pineal Res, 2018, 64, e12476).
The trigeminal ganglia of male SD rats weighed about 220 g were exposed after anesthesia. The bilateral trigeminal ganglia were taken by using microscopic dissecting forceps, removed of their fiber connections, and then immediately placed in ice-cold oxygenated DMEM medium. The trigeminal ganglion in the culture medium was transferred into 3 mg/ml collagenase digestion solution, cut into pieces with microscissors, and digested at 37° C. for 45 min, and then digested in 2 mg/ml trypsin digestion solution for another 15 min. After the above operations, the digestion was terminated by adding DMEM medium containing 10% fetal bovine serum. The cells were dispersed by repeatedly pipetting, and filtered through a 40 μm cell sieve. The resulting suspension was centrifuged at 800 rpm for 3 min. After centrifugation, the supernatant was discarded, and the cell pellet was resuspended in DMEM medium. After resuspension, the cell suspension was seeded on a cover glass pre-coated with polylysine in a 24-well culture plate, and placed in an incubator at 37° C. with 5% CO2 for later use.
The process was the same as that in Example 1. […]

[3] = biological target: T2, T-type calcium channel subtype Cav3.1 (Homo sapiens, UniProt O43497); experiment: Whole-cell voltage clamp of Cav3.1 current in transfected HEK293 cells; format: cell-based
T2 construct: expressed in transfected cells; host or cells: HEK293 cells
Procedure: as §1, §2, §3, §4, §5

CCI-ION model rats = experiment: Facial pain threshold of trigeminal neuropathic pain (CCI-ION) model rats (von Frey); format: in vivo, rat; settings: day 14 after model; for effect on facial pain threshold (mechanical hyperalgesia), CCI-ION model: at 3 h
Procedure: Adult healthy male SD rats weighed 200-250 g were used. Before the experiment, the animals were allowed to acclimate to the breeding environment for three days. The rats were anesthetized with 4% chloral hydrate at an injection dose of 1 ml/100 g body weight. The tongue of the anesthetized rat in a supine position was pulled out and to the right to expose the left side of the mouth. At the level of the left maxillary first molar, a longitudinal incision of about 1 cm was cut along the gingival edge of the buccal aspect, and the tissue was bluntly isolated, to carefully expose the infraorbital nerve. The proximal and distal ends of the infraorbital nerve were loosely ligated with 5-0 suture, where the distance between the two ligatures was about 2 mm, and the tension was moderate. […] The process was the same as that in Example 4. It can be seen that CCI-ION can lower the facial pain threshold of rats. • 2. Effect of miloxacin on the facial pain threshold of CCI-ION model rats: 27 CCI-ION model rats obtained by the above method were divided into three groups, each having 9 rats. On day 14 after the CCI-ION model was established, 10 nmol miloxacin was locally injected into the trigeminal ganglion of rats in the first group, 5 nmol miloxacin was locally injected into the trigeminal ganglion of rats in the second group, and the corresponding solvent DMSO was locally injected into the trigeminal ganglion of rats in the third group. After 1 h, 3 h, 6 h, 9 h, 12 h, and 24 h, the facial pain threshold of each group was detected. […] Study on the analgesic mechanism of miloxacin in CCI-ION model rats: On day 14 after the CCI-ION model was established, 2 nmol TTA-P2 was locally injected into the trigeminal ganglion, and then 10 nmol miloxacin was locally injected into the trigeminal ganglion 30 min later, which was used as the TTA-P2 group. The other group was injected with the corresponding solvent DMSO, and then administered with 10 nmol miloxacin by local injection 30 min later, which was used as the solvent group.

[4] = system: trigeminal ganglion neurons; experiment: Firing of neuronal action potential in acutely dissociated rat trigeminal ganglion neurons (current clamp); format: cell-based; settings: 10 μM miloxacin, 180 pA for 1 sec; control 13.3±1.5
Procedure: The process was the same as that in Example 2. At room temperature, Multiclamp 700B amplifier was used for whole-cell current clamp recording. A current of 180 pA was injected into the cell for 1 sec to stabilize the cell at −70 mV, and the frequency of the generated action potential was recorded. Internal pipette solution: 10 sodium chloride, 110 potassium chloride, 2 EGTA, 25 HEPES, 0.5 sodium-GTP, 4 magnesium-ATP. External pipette solution: 2 potassium chloride, 128 sodium chloride, 2 calcium chloride, 2 magnesium chloride, 30 glucose, 25 HEPES. The unit is mM, that is, millimoles/liter. 10 μM miloxacin was directly administered to the T-type calcium channel in the trigeminal ganglion neurons as the treatment group. The groups before miloxacin administration were used as control groups.

[5] = biological target: T3, T-type calcium channel subtype Cav3.3 (Homo sapiens, UniProt Q9P0X4); experiment: Whole-cell voltage clamp of Cav3.3 current in transfected HEK293 cells; format: cell-based; settings: 10 μM miloxacin, step -90 mV to -30 mV
T3 construct: expressed in transfected cells; host or cells: HEK293 cells
Procedure: as §1
as §2, with “group. […]” for “group.”
At room temperature, Multiclamp700B amplifier was used for whole-cell voltage clamp recording. […] The current amplitude of the T-type calcium channel at this time was recorded. […]

[6] = 5 nmol local injection into trigeminal ganglion
[7] = 10 nmol local injection into trigeminal ganglion
[8] = 10 nmol miloxacin 30 min after 2 nmol TTA-P2, trigeminal ganglion
[9] = 10 μM miloxacin, step -90 mV to -30 mV
[10] = 2 nmol local injection into trigeminal ganglion

T2 sequence (O43497 1-2171 isoform O43497-5): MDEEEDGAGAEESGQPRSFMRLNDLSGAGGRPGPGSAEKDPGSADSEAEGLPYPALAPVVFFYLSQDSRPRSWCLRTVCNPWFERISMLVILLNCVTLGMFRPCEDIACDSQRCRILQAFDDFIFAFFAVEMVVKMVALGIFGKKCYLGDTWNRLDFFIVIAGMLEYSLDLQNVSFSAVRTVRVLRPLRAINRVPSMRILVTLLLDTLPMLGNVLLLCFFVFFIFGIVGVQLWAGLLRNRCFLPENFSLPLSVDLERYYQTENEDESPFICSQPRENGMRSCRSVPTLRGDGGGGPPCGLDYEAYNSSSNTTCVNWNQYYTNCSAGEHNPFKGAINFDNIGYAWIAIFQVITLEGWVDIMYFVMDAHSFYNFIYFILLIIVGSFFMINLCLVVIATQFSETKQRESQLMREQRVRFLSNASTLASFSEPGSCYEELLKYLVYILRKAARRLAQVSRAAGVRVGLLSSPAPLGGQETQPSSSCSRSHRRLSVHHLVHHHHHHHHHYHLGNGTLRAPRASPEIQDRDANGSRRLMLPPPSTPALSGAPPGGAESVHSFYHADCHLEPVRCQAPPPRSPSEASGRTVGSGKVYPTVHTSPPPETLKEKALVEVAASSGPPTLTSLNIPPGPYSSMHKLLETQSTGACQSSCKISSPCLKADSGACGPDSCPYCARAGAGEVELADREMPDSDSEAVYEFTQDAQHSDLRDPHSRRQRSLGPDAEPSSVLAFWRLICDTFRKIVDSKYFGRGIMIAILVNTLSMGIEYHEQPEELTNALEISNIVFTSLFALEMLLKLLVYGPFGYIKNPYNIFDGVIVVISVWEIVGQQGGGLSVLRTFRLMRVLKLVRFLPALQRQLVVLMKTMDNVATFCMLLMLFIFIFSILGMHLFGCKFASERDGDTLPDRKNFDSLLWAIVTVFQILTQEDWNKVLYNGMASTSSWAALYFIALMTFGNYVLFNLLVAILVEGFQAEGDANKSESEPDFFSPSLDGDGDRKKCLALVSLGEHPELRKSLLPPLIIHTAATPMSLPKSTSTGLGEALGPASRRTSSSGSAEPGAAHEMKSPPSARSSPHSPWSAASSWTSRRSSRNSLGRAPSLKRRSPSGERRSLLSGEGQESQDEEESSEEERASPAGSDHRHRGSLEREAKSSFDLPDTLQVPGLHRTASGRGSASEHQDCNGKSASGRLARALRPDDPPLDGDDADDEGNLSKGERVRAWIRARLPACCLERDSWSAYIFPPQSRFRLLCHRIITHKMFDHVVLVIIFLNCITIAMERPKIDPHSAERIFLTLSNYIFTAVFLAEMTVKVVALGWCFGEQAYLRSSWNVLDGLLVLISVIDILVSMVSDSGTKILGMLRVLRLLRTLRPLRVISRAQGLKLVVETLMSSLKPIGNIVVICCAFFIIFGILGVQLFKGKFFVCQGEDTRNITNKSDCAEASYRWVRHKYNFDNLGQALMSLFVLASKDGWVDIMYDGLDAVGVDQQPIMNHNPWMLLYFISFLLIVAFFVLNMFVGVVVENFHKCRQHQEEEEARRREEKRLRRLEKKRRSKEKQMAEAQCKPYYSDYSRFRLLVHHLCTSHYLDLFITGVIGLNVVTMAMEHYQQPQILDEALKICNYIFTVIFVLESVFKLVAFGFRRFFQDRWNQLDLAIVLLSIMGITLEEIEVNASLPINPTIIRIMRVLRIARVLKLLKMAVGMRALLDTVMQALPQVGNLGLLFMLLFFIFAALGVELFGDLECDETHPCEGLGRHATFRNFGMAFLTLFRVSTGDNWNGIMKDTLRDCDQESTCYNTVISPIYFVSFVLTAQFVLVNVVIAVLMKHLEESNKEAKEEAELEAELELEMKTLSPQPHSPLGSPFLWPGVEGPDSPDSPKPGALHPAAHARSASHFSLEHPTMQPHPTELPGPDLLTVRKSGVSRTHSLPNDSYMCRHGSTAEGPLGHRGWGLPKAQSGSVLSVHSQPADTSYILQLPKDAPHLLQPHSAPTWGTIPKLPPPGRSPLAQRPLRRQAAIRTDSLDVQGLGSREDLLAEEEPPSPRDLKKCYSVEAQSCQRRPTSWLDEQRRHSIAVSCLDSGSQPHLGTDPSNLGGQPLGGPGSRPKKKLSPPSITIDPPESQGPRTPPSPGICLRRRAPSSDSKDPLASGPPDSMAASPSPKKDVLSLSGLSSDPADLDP
T1 sequence (O95180 whole entry): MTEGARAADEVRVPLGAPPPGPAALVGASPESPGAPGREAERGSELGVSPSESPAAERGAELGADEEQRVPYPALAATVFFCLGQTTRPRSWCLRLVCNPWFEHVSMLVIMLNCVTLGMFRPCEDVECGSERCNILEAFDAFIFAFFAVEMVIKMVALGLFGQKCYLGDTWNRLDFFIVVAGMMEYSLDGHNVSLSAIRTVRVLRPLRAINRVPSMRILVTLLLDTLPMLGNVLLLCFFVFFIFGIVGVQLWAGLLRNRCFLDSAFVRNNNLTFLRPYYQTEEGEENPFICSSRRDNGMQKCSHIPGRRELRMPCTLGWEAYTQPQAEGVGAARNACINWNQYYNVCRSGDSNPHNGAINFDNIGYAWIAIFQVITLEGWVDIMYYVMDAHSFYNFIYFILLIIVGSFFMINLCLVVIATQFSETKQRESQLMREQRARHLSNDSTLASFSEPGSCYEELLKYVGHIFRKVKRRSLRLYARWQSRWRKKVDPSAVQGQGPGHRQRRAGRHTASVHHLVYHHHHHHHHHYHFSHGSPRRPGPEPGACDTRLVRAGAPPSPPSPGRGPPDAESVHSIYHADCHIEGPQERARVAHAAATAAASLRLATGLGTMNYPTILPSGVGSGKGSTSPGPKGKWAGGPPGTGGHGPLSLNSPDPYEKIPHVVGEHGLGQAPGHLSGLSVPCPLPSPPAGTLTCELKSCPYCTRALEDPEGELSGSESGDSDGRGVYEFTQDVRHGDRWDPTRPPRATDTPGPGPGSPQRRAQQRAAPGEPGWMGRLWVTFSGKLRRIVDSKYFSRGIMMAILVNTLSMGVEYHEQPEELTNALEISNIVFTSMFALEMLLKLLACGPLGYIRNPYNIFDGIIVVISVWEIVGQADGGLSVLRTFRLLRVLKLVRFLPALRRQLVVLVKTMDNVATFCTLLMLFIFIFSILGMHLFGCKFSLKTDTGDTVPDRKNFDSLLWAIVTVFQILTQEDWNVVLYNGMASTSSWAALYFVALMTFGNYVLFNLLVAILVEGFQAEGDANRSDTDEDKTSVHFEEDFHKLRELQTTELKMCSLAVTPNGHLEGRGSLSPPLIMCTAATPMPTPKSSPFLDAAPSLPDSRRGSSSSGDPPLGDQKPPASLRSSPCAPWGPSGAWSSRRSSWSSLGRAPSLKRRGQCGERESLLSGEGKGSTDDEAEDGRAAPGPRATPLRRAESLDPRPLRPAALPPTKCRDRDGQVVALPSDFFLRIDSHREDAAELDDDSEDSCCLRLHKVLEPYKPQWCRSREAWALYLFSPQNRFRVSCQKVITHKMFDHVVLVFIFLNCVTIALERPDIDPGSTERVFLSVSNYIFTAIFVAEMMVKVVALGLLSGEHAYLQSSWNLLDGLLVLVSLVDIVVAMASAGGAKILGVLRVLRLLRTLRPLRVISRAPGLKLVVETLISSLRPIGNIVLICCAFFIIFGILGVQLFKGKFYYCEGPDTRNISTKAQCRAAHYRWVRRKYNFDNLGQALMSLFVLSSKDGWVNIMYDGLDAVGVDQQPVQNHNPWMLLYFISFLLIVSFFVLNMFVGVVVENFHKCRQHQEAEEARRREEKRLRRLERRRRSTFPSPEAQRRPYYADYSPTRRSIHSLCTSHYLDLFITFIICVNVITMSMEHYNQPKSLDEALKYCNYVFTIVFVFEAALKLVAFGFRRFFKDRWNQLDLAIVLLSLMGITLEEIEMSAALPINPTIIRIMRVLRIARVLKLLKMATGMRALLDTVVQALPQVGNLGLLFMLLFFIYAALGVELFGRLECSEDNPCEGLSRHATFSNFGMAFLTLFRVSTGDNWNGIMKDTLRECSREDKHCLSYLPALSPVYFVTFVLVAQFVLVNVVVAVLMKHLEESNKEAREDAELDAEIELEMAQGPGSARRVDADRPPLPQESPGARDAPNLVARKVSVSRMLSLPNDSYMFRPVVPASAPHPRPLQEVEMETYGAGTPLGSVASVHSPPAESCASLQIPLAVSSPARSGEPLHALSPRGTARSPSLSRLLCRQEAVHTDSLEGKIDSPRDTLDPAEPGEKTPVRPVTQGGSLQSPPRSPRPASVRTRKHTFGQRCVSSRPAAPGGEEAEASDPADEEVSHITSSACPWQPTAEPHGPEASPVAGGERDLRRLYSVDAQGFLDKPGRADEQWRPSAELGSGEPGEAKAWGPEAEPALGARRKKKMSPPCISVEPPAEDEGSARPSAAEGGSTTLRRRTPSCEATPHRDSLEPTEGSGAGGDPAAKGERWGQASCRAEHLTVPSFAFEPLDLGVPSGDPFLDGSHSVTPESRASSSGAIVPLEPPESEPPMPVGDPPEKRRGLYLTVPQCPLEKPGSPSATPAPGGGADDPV

inactivation constant V1/2 of subtype Cav3.2, left shift ([2]; 10 μM miloxacin vs. control) [mV] | subtype Cav3.2 current reduced compared to control [2, 9] [%] | IC50 ([2]; dose-effect curve) [µM] | IC50 (T-type calcium channel; dose-effect curve) [µM] | inactivation constant V1/2 of subtype Cav3.1, left shift ([3]; 10 μM miloxacin vs. control) [mV] | subtype Cav3.1 current reduced compared to control [3, 9] [%] | IC50 ([3]; dose-effect curve) [µM] | subtype Cav3.3 current reduced compared to control [5] [%] | Compound | effect on facial pain threshold (mechanical hyperalgesia), CFA model [1, 6] | effect on facial pain threshold (mechanical hyperalgesia), CFA model [1, 7] | effect of miloxacin after TTA-P2 on facial pain threshold, CFA model [1, 8] | effect on facial pain threshold of normal rats (normal rats) | T-type calcium channel current reduced compared to control (T-type calcium channel; 10 μM miloxacin) [%] | effect on facial pain threshold (mechanical hyperalgesia), CCI-ION model (CCI-ION model rats; [6]) | effect on facial pain threshold (mechanical hyperalgesia), CCI-ION model (CCI-ION model rats; [7]) | effect of miloxacin after TTA-P2 on facial pain threshold, CCI-ION model (CCI-ION model rats; [8]) | action potential (number in a 1-sec stimulation course) [4] | effect of TTA-P2 on facial pain threshold, CFA model [1, 10] | effect of TTA-P2 on facial pain threshold, CCI-ION model (CCI-ION model rats; [10])
8.5±0.3 | 57.2±3.3 | 8.2 ± 0.6 | 7.7 ± 0.6 | 6.5±0.7 | 49.6±2.9 | 6.5 ± 0.9 | 2.1±0.7 | COn1cc(C(=O)O)c(=O)c2cc3c(cc21)OCO3 [miloxacin] | significantly reversed mechanical hyperalgesia | significantly reversed mechanical hyperalgesia | does not further increase the facial pain threshold | does not affect the facial pain threshold | 52.7±2.6 | significantly reversed mechanical hyperalgesia | significantly reversed mechanical hyperalgesia | does not further increase the facial pain threshold | 6.1±0.3 |  | 
 |  |  |  |  |  |  |  | CC1(C)C[C@@H](CN2CCC(F)(CNC(=O)c3cc(Cl)cc(Cl)c3)CC2)CCO1 [TTA-P2, 3,5-dichloro-N-[[4-fluoro-1-[[(4S)-tetrahydro-2,2-dimethyl-2H-pyran-4-yl]methyl]-4-piperidine]methyl]benzamide] |  |  |  |  |  |  |  |  |  | can increase the facial pain threshold | can increase the facial pain threshold
